According to US8642642B2, “Heterocyclic arylsulphones suitable for treating disorders that respond to modulation of the serotonin 5HT6 receptor” (Abbott Laboratories, priority 2006, dated 2014):
Structures can show the parent of a compound that is named as a salt.

Tests used:
[1] = biological target: T1, human dopamine D3 receptors (Homo sapiens, UniProt P35462); assay: Dopamine D3 receptor binding ([125I]-iodosulpride); settings: for Ki: membranes from HEK-293 cells, 0.1 nM [125I]-iodosulpride; for Ki(D2)/Ki(D3): ratio of receptor binding constants, D2L versus D3
T1 construct: expressed in transfected cells
T1 sequence (P35462 whole entry): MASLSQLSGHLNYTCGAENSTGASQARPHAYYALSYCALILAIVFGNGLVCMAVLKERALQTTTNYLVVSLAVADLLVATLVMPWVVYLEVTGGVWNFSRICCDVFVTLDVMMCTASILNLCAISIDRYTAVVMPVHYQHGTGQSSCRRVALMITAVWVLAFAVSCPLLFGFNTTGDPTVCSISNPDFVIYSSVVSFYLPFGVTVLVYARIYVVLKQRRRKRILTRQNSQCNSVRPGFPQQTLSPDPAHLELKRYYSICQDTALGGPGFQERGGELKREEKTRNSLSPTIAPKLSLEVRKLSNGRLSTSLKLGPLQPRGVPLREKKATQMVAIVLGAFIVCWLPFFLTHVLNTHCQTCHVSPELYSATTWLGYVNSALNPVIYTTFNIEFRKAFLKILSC
Procedure: (§1) The substance to be tested was either dissolved in methanol/Chremophor® (BASF-AG) or in dimethyl sulfoxide and then diluted with water to the desired concentration.
Each assay mixture was run in triplicate.
The incubation buffer contained 50 mM tris, 120 mM NaCl, 5 mM KCl, 2 mM CaCl2, 2 mM MgCl2 and 0.1% bovine serum albumin, 10 μM quinolone and 0.1% ascorbic acid (prepared fresh daily). The buffer was adjusted to pH 7.4 with HCl.
After having been incubated at 25° C. for 60 minutes, the assay mixtures were filtered through a Whatman GF/B glass fiber filter under vacuum using a cell collecting device. The filters were transferred to scintillation viols using a filter transfer system. After 4 ml of Ultima Gold® (Packard) have been added, the samples were shaken for one hour and the radioactivity was then counted in a Beta-Counter (Packard, Tricarb 2000 or 2200CA). The cpm values were converted into dpm using a standard quench series and the program belonging to the instrument.
The inhibition curves were analyzed by means of iterative nonlinear regression analysis using the Statistical Analysis System (SAS) which is similar to the “LIGAND” program described by Munson and Rodbard.

[2] = biological target: T2, human 5-HT6 receptor (Homo sapiens, UniProt P50406); assay: Human 5-HT6 receptor binding assay (3H-LSD displacement); settings: membranes from HEK-293 cells, 2 nM 3H-LSD
T2 construct: expressed in transfected cells
T2 sequence (P50406 whole entry): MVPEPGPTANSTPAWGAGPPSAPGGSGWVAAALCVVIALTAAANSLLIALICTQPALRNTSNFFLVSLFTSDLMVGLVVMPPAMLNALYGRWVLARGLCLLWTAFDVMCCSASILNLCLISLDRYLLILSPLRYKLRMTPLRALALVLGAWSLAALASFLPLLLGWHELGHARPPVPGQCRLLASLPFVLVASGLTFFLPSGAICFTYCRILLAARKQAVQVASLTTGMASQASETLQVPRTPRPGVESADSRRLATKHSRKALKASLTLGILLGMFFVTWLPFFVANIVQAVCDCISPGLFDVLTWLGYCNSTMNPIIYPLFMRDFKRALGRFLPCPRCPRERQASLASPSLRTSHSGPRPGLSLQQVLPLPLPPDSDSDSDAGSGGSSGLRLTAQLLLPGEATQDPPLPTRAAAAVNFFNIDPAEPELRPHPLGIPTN
Procedure: as §1
The compounds were dissolved in a concentration of 10^−2 M or 10^−3 M in DMSO. Further dilutions were performed in incubation buffer.
The procedure for the binding assay was based on the method of Monsma et al. (1993) Mol Pharmacol 43: 320-327. The binding reaction was carried out in a total volume of 0.250 ml for 60 min at 37° C. Membranes from HEK-293 cells stably expressing the human 5-HT6 receptor were incubated with 2 nM ^3H-LSD in the presence or absence of various concentrations of test compound for 60 min at 37° C. Non-specific binding was defined with 100 μM Serotonin (5-HT). Assays were performed in duplicate. Bound and free radioligand was separated by filtration and bound radioactivity determined by liquid scintillation counting.
The specific ligand binding to the receptors was defined as the difference between the total binding and the nonspecific binding determined in the presence of an excess of unlabelled 5-HT. The results are expressed as a percent of control specific binding obtained in the presence of compound. The IC50 values (concentration causing a half-maximal inhibition of control specific binding) and Hill coefficients (nH) were determined by non-linear regression analysis of the competition curves using Hill equation curve fitting.
The inhibition constants (Ki) were calculated from the Cheng Prusoff equation (Ki=IC50/(1+(L/KD)), where L=concentration of radioligand in the assay, and KD=affinity of the radioligand for the receptor).

| Molecule | Ki [1] [nM] | Ki [2] [nM] | Ki(D2)/Ki(D3) [1] |
| --- | --- | --- | --- |
| CCCN1CC[C@@H](c2ccc(NS(=O)(=O)c3ccc(-n4cccn4)s3)cc2)C1.Cl [Example 73, 5-Pyrazol-1-yl-thiophene-2-sulfonic acid [4-((S)-1-propyl-pyrrolidin-3-yl)-phenyl]-amide hydrochloride] | 1 to 10 | 10 to 50 | ++ (between 50 and 100) |
| CCCN1CC[C@@H](c2ccc(NS(=O)(=O)c3cc(F)c(Br)cc3F)cc2)C1 [Example 3, 4-Bromo-3,6-difluoro-N-[4-((S)-1-propyl-pyrrolidin-3-yl)-phenyl]-benzenesulfonamide] | 1 to 10 | 10 to 50 | +++ (between 100 and 150) |
| CCCN1CC[C@@H](c2ccc(NS(=O)(=O)c3cccc(Br)c3)cc2)C1 [Example 70, 3-Bromo-N-[4-((S)-1-propyl-pyrrolidin-3-yl)-phenyl]-benzenesulfonamide] | 1 to 10 | 1 to 10 | ++ (between 50 and 100) |
| 3-Trifluoromethyl-N-[4-((S)-1-propyl-pyrrolidin-3-yl)-phenyl]-benzenesulfonamide [Example 4] | 10 to 50 | 1 to 10 | + (between 10 and 50) |
| CCCN1CC[C@@H](c2ccc(NS(=O)(=O)c3ccc(-c4ccccn4)s3)cc2)C1.Cl [Example 66, 5-Pyridin-2-yl-thiophene-2-sulfonic acid [4-((S)-1-propyl-pyrrolidin-3-yl)-phenyl]-amide hydrochloride] | < 1 | 10 to 50 | +++ (between 100 and 150) |
| CCCN1CC[C@@H](c2ccc(NS(=O)(=O)c3ccc(Br)s3)cc2)C1.Cl [Example 59, 5-Bromo-thiophene-2-sulfonic acid [4-((S)-1-propyl-pyrrolidin-3-yl)-phenyl]-amide hydrochloride] | 1 to 10 | 1 to 10 | +++ (between 100 and 150) |
| CCCN1CC[C@@H](c2ccc(NS(=O)(=O)c3ccc(OC(F)(F)F)c(Br)c3)cc2)C1.Cl [Example 61, 3-Bromo-N-[4-((S)-1-propyl-pyrrolidin-3-yl)-phenyl]-4-trifluoromethoxy-benzenesulfonamide hydrochloride] | 1 to 10 | 10 to 50 | ++ (between 50 and 100) |
| CCCN1CC[C@@H](c2ccc(NS(=O)(=O)c3cccc(N4CCCC4)c3)cc2)C1 [Example 71, N-[4-((S)-1-Propyl-pyrrolidin-3-yl)-phenyl]-3-pyrrolidin-1-yl-benzenesulfonamide] | 10 to 50 | 1 to 10 | + (between 10 and 50) |
| Cl.O=S(=O)(Nc1ccc([C@@H]2CCNC2)cc1)c1ccc(-c2ccccn2)s1 [Example 69, 5-Pyridin-2-yl-thiophene-2-sulfonic acid ((S)-4-pyrrolidin-3-yl-phenyl)-amide hydrochloride] | 10 to 50 | 10 to 50 | +++ (between 100 and 150) |
| CCCc1ccc(S(=O)(=O)Nc2ccc([C@@H]3CCN(CCC)C3)cc2)s1 [Example 60, 5-Propyl-thiophene-2-sulfonic acid [4-((S)-1-propyl-pyrrolidin-3-yl)-phenyl]-amide] | < 1 | 10 to 50 | + (between 10 and 50) |
| O=S(=O)(Nc1cccc(C2CCNC2)c1)c1cccc(OC(F)(F)F)c1 (stereo not drawn) [Example 6, N-(3-Pyrrolidin-3-yl-phenyl)-3-trifluoromethoxy-benzenesulfonamide] |  | 1 to 10 |  |
| CCCN1CC(c2ccc(NS(=O)(=O)c3cc(Cl)cc(Cl)c3)cc2)C1 [Example 49, 3,5-Dichloro-N-[4-(1-propyl-azetidin-3-yl)-phenyl]-benzenesulfonamide] |  | 10 to 50 |  |
| O=S(=O)(Nc1cccc(C2CCCNC2)c1)c1cccc(OC(F)(F)F)c1 (stereo not drawn) [Example 63, N-(3-Piperidin-3-yl-phenyl)-3-trifluoromethoxy-benzenesulfonamide hydrochloride] |  | 10 to 50 |  |
| CCCN1CC[C@@H](c2ccc(NS(=O)(=O)c3cccc(C#N)c3)cc2)C1 [Example 64, 3-Cyano-N-[4-((S)-1-propyl-pyrrolidin-3-yl)-phenyl]-benzenesulfonamide hydrochloride] |  | 50 to 150 |  |
| CCCN1CC(c2ccc(NS(=O)(=O)c3cccc(C)c3)cc2)C1 [Example 50, 3-Methyl-N-[4-(1-propyl-azetidin-3-yl)-phenyl]-benzenesulfonamide] |  | 50 to 150 |  |
| O=S(=O)(Nc1cccc(C2CNC2)c1)c1cc(Cl)cc(Cl)c1 [Example 18, N-(3-Azetidin-3-yl-phenyl)-3,5-dichloro-benzenesulfonamide] |  | 1 to 10 |  |

More lines, now with the values ahead:

| Ki [1] [nM] | Ki [2] [nM] | Ki(D2)/Ki(D3) [1] | Molecule |
| --- | --- | --- | --- |
| < 1 | 1 to 10 |  | CCCN1CC[C@@H](c2ccc(NS(=O)(=O)c3ccc(-c4csc(C)n4)s3)cc2)C1 [Example 78, 5-(2-Methyl-thiazol-4-yl)-thiophene-2-sulfonic acid [4-((S)-1-propyl-pyrrolidin-3-yl)-phenyl]-amide] |
| 50 to 150 | 1 to 10 | + (between 10 and 50) | CCCN1CC[C@@H](c2ccc(NS(=O)(=O)c3cccc(-c4csc(C)n4)c3)cc2)C1 [Example 99, 3-(2-Methyl-thiazol-4-yl)-N-[4-((S)-1-propyl-pyrrolidin-3-yl)-phenyl]-benzenesulfonamide] |
| 1 to 10 | 1 to 10 | ++++ (>150) | CCCN1CC[C@@H](c2ccc(NS(=O)(=O)c3ccc(C)s3)cc2)C1.Cl [Example 90, 5-Methyl-thiophene-2-sulfonic acid [4-((S)-1-propyl-pyrrolidin-3-yl)-phenyl]-amide hydrochloride] |
| 10 to 50 | 10 to 50 | ++ (between 50 and 100) | CCCN1CC[C@@H](c2ccc(NS(=O)(=O)c3ccc(F)c(C(F)(F)F)c3)cc2)C1 [Example 102, 4-Fluoro-N-[4-((S)-1-propyl-pyrrolidin-3-yl)-phenyl]-3-trifluoromethyl-benzenesulfonamide] |
| 10 to 50 | 1 to 10 | + (between 10 and 50) | CCCN1C[C@@H](CF)[C@H](c2ccc(NS(=O)(=O)c3cccc(C(F)(F)F)c3)cc2)C1 (relative stereo) [Example 95, N-[4-(trans-4-Fluoromethyl-1-propyl-pyrrolidin-3-yl)-phenyl]-3-trifluoromethyl-benzenesulfonamide] |
| 50 to 150 | 10 to 50 | ++ (between 50 and 100) | CCCN1CC[C@@H](c2ccc(NS(=O)(=O)c3cc(F)cc(C(F)(F)F)c3)cc2)C1.Cl [Example 103, 3-Fluoro-N-[4-((S)-1-propyl-pyrrolidin-3-yl)-phenyl]-5-trifluoromethyl-benzenesulfonamide hydrochloride] |
| 10 to 50 | 1 to 10 | ++ (between 50 and 100) | CCCN1CC[C@@H](c2ccc(NS(=O)(=O)c3cc(Cl)c(Cl)s3)cc2)C1.Cl [Example 74, 4,5-Dichloro-thiophene-2-sulfonic acid [4-((S)-1-propyl-pyrrolidin-3-yl)-phenyl]-amide hydrochloride] |
| 1 to 10 | 10 to 50 | ++ (between 50 and 100) | CCCN1CC[C@@H](c2ccc(NS(=O)(=O)c3ccc(F)c(Br)c3F)cc2)C1.Cl [Example 86, 3-Bromo-2,4-difluoro-N-[4-((S)-1-propyl-pyrrolidin-3-yl)-phenyl]-benzenesulfonamide hydrochloride] |
| 1 to 10 | 1 to 10 | +++ (between 100 and 150) | CCCN1CC[C@@H](c2ccc(NS(=O)(=O)c3ccc(C(F)(F)F)s3)cc2)C1.Cl [Example 76, 5-Trifluoromethyl-thiophene-2-sulfonic acid [4-((S)-1-propyl-pyrrolidin-3-yl)-phenyl]-amide hydrochloride] |
| 10 to 50 | 10 to 50 | + (between 10 and 50) | CCCN1CC[C@@H](c2ccc(NS(=O)(=O)c3ccc(-c4csnn4)s3)cc2)C1.Cl [Example 75, 5-[1,2,3]Thiadiazol-4-yl-thiophene-2-sulfonic acid [4-((S)-1-propyl-pyrrolidin-3-yl)-phenyl]-amide hydrochloride] |
|  | 1 to 10 |  | CN1CC[C@@H](c2cccc(NS(=O)(=O)c3cccc(C(F)(F)F)c3)c2)C1 [Example 77, N-[3-((S)-1-Methyl-pyrrolidin-3-yl)-phenyl]-3-trifluoromethyl-benzenesulfonamide hydrochloride] |
